Consider eight compounds from patent US6867192B1, “Compounds useful in the treatment of inflammatory diseases” (priority 1998, dated 2005).

In data set [1] the target is T1, integrin VLA-4, expressed on the Jurkat J6 (human lymphoblast cell line) cell membrane with VCAM-1 (Homo sapiens, UniProt P05556+P13612).
T1 construct: integrin VLA-4, expressed on the Jurkat J6 (human lymphoblast cell line) cell membrane; endogenous in cells; host or cells: Jurkat J6 cells (integrin). zzVCAM-1 was made in house in Drosophila melanogaster S2 cells
T1 sequence (P13612 34-1032): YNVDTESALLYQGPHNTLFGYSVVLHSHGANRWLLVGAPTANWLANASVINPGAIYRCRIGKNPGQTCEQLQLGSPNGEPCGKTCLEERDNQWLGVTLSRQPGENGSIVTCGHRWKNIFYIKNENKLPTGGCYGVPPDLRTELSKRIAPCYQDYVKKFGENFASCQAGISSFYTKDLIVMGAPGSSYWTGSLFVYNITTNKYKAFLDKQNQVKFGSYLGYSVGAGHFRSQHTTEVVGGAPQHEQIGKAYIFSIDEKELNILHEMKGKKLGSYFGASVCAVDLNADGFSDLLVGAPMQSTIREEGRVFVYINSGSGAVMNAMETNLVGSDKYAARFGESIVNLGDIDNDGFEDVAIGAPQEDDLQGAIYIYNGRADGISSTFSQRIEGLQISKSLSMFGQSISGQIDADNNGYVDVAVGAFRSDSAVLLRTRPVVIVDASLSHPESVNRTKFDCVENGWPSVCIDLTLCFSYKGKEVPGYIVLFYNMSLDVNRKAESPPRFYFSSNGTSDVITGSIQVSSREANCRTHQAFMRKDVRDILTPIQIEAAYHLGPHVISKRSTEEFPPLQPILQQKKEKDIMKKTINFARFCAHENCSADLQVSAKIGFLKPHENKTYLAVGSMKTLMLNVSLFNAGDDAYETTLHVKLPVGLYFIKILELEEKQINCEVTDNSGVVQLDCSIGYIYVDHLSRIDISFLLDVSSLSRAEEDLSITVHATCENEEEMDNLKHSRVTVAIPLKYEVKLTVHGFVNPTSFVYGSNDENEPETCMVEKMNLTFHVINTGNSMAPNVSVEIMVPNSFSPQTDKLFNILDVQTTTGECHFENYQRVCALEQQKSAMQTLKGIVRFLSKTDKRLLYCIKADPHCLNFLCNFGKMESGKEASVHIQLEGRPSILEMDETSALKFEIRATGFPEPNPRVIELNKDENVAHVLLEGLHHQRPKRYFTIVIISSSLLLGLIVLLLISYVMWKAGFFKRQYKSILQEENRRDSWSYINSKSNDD
T1 sequence (P05556 21-798): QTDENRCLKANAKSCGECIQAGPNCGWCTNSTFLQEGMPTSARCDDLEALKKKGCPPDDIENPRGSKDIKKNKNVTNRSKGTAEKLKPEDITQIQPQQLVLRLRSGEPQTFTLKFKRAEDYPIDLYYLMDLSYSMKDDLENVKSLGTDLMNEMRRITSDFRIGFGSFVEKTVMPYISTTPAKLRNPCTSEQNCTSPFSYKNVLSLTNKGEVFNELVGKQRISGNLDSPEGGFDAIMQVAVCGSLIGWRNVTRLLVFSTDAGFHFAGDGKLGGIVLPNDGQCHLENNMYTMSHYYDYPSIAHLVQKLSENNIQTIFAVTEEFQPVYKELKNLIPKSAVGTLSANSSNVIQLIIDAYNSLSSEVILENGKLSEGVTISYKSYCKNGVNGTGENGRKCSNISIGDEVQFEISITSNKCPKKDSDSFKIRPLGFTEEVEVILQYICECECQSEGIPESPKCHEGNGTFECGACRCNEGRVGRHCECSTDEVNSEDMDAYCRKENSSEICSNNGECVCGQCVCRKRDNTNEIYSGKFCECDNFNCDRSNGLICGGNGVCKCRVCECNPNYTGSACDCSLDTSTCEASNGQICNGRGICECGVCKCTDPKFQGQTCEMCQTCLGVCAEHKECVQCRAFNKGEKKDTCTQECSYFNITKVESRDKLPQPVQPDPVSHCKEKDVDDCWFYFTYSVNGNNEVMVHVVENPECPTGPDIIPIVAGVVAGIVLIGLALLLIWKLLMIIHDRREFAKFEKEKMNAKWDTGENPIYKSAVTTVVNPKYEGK
Put plainly: Jurkat J6/VCAM-1 adhesion assay. The class given is cell-based. The settings on record: Jurkat J6 cell adhesion to VCAM-1, 1 mM MnCl2; mean of n experiments. The method, boiled down:
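Jurkat J6 cells loaded with BCECF-AM were added with compound in HBSS with 1 mM MnCl2 to plates coated with IgG-captured zzVCAM-1 (seven-domain, S2-expressed) and left to adhere for 30 min at 37 °C. After washing, fluorescence was read. pIC50 came from a four-parameter fit between no compound and 2 mM EDTA.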

For the next data set, the system named is CD4+ T-cells. As to the kind of experiment: CD3/VCAM-1 co-stimulation of T-lymphocyte proliferation. Type of data set: cell-based. Conditions: T-cell; [3H] thymidine incorporation, 4 days incubation, anti-CD3/zzVCAM-1 coated plates. The procedure: (2) CD3/VCAM-1 Co-stimulation of T-Lymphocyte Proliferation
CD4^+ T-cells were purified from peripheral blood mononuclear cells by negative selection with anti-CD14, CD19, CD16 and HLA.DR antibodies and Dynal beads. Flat bottomed 96-well tissue culture plates were coated with 1 μg ml^−1 anti-CD3 antibody (OKT3), washed and incubated with human IgG and zzVCAM-1 fusion proteins. The CD4^+ T cells (prepared in RPMI-1640 medium supplemented with 10% FCS, penicillin or streptomycin and L-glutamine) were added to the coated plates (1×10^5 cells well^−1) and incubated in the presence or absence of various doses of compound or blocking antibodies for 4 days. Radiolabelled thymidine [^3H] was added for the final 6 hours of incubation and the cells were then harvested using a Skatron plate harvester. Incorporation of the [^3H] label was measured as an indicator of T cell proliferation using a β plate counter. Compounds were assayed in triplicate and data was collected in an analogous procedure to that described for Assay (1).
Background: Uptake of a labelled nucleoside into DNA is a usual measure of proliferation.

The nature of a further data set: Solubility in water. The class given is physicochemical.

Converted amounts (≈) assume the structure as drawn.

As to `CC(C)C[C@H](NC(=O)COc1ccccc1I)C(=O)N[C@@H](Cc1ccc(OC(=O)N2CCOCC2)cc1)C(=O)O` [Example 23, (2S)-2-[((2S)-2-{[2-(2-Iodophenoxy)acetyl]amino}-4-methylpentanoyl)amino]-3-{4-[(4-morpholinylcarbonyl)oxy]phenyl}propanoic acid], the IC50 (usually the concentration that gives 50% inhibition) in data set [1] was 4.47 nM; in the data set on CD4+ T-cells, 126 nM.

With `CC(C)C[C@H](NC(=O)c1cccc2c1oc1ccccc12)C(=O)N[C@@H](Cc1ccc(OC(=O)N2CCC(C(N)=O)CC2)cc1)C(=O)O` [Example 28, (2S)-3-[4-({[4-(Aminocarbonyl)-1-piperidinyl]carbonyl}oxy)phenyl]-2-({(2S)-2-[(dibenzo[b,d]furan-4-ylcarbonyl)amino]-4-methylpentanoyl}amino)propanoic acid], the IC50 in data set [1] is 3.47 nM; with CD4+ T-cells, 158 nM.

Turning to `CC(=O)N1CCN(C(=O)Oc2ccc(C[C@H](NC(=O)[C@H](CC(C)C)NC(=O)COc3ccccc3C)C(=O)O)cc2)CC1` [Example 17, (2S)-3-(4-{[(4-Acetyl-1-piperazinyl)carbonyl]oxy}phenyl)-2-[((2S)-4-methyl-2-{[2-(2-methylphenoxy)acetyl]amino}pentanoyl)amino]propanoic acid], the results for the IC50 (in data set [1]; in the data set with CD4+ T-cells) were 2.57 nM and 31.6 nM, respectively.

Consider `CC(C)C[C@H](NC(=O)COc1ccccc1C(C)(C)C)C(=O)N[C@@H](Cc1ccc(OC(=O)N2CCN(C(=O)c3ccccc3)CC2)cc1)C(=O)O` [Example 20, (2S)-3-(4-{[(4-Benzoyl-1-piperazinyl)carbonyl]oxy}phenyl)-2-{[(2S)-2-({2-[2-(tert-butyl)phenoxy]acetyl}amino)-4-methylpentanoyl]amino}propanoic acid], for which the IC50 in data set [1] is 14.8 nM; with CD4+ T-cells, 126 nM.

With `CC(C)C[C@H](NC(=O)COc1ccccc1C(C)(C)C)C(=O)N[C@@H](Cc1ccc(OC(=O)N2CCOCC2)cc1)C(=O)O` [Example 24, (2S)-2-{[(2S)-2-({2-[2-(Tert-butyl)phenoxy]acetyl}amino)-4-methylpentanoyl]amino}-3-{4-[(4-morpholinylcarbonyl)oxy]phenyl}propanoic acid], the IC50 in data set [1] was 6.03 nM; in the data set with CD4+ T-cells, 79.4 nM.

As for `CC(=O)N1CCN(C(=O)Oc2ccc(C[C@H](NC(=O)[C@H](CC(C)C)NC(=O)COc3ccccc3C(C)(C)C)C(=O)O)cc2)CC1` [Example 16, (2S)-3-(4-{[(4-Acetyl-1-piperazinyl)carbonyl]oxy}phenyl)-2-{[(2S)-2-({2-[2-(tert-butyl)phenoxy]acetyl}amino)-4-methylpentanoyl]amino}propanoic acid], the IC50 is 3.24 nM in data set [1] and 39.8 nM in the data set with CD4+ T-cells.

Consider `Cc1ccccc1OCC(=O)N[C@@H](CC(C)C)C(=O)N[C@@H](Cc1ccc(OC(=O)N2CCN(C(=O)c3ccccc3)CC2)cc1)C(=O)O` [Example 21, (2S)-3-(4-{[(4-Benzoyl-1-piperazinyl)carbonyl]oxy}phenyl)-2-[((2S)-4-methyl-2-{[2-(2-methylphenoxy)acetyl]amino}pentanoyl)amino]propanoic acid], for which the IC50 was 3.89 nM in data set [1] and 126 nM in the data set with CD4+ T-cells.

For `Cc1ccccc1OCC(=O)N[C@@H](CC(C)C)C(=O)N[C@@H](Cc1ccc(OC(=O)N2CCC(C(N)=O)CC2)cc1)C(=O)O` [Example 27, (2S)-3-[4-({[4-(Aminocarbonyl)-1-piperidinyl]carbonyl}oxy)phenyl]-2-[((2S)-4-methyl-2-{[2-(2-methylphenoxy)acetyl]amino}pentanoyl)amino]propanoic acid], the values for the IC50 (in data set [1]; with CD4+ T-cells) were 2.82 nM and 31.6 nM, respectively. In addition, the solubility (in general, the dissolved amount per volume that the medium holds) in the data set “Solubility in water” is 10 µg/mL (≈ 16.8 µM).
